Assay results published in PMC8508710, “Biochemical Characterization of 13-Lipoxygenases of Arabidopsis thaliana” (International Journal of Molecular Sciences, 2021).

What was measured:
LOX6 [1] = biological target: T1, LOX6 (Arabidopsis thaliana, UniProt Q9CAG3); assay: LOX6 activity, oxygen electrode (polarography); type: biochemical; parameters: made in house; host or cells: E. coli Nico21(DE3), pEXP5-NT/TOPO; settings: for activity at 280 µM: enzyme incubated with 280 µM chemical (1/10 vol of 2.8 mM), injected into 30 µM LeA, 50 mM Tris-HCl pH 7.2, vs solvent control, read-out: Polarography Relative Activity (%) LOX6; for Increase of LOX6-catalyzed oxygen consumption: 1 mM cation, LeA 30 µM, pH 8.0; for Relative Activity (%) LOX6: 1 mM metal salt, LeA 30 µM in 20 mM HEPES pH 8.0, oxygen consumption vs control without metal
T1 sequence (Q9CAG3 41-917): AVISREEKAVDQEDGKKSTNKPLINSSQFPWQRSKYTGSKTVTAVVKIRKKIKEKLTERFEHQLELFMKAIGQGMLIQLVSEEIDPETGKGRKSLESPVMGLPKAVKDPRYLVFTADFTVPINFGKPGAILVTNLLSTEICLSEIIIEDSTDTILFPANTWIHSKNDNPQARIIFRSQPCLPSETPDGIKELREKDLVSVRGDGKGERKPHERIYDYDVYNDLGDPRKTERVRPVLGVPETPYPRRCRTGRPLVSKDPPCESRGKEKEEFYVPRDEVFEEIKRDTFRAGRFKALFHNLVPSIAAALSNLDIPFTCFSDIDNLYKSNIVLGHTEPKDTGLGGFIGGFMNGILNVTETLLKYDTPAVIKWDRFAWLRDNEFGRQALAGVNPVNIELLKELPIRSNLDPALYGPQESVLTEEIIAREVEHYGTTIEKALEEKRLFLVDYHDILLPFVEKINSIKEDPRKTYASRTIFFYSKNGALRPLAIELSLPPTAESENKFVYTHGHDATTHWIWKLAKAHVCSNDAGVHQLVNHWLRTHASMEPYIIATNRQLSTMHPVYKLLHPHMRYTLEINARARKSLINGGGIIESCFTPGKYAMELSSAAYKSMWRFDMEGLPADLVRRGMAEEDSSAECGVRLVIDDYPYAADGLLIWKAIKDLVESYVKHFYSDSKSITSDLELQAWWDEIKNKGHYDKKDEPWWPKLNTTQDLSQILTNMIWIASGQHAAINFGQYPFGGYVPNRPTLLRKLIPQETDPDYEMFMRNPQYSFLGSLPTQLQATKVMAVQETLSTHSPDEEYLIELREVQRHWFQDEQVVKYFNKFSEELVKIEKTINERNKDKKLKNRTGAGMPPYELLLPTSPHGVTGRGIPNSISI

LOX2 = biological target: T2, LOX2 (Arabidopsis thaliana, UniProt P38418); assay: LOX2 activity, spectrophotometric (conjugated diene formation at 234 nm); settings: for Mode of inhibition: Lineweaver–Burk plot, 12-OPDA tested at 226 µM; for Photometry Relative activity (%) LOX2: enzyme 0.225 µg/µL incubated 10 min 30 °C with 280 µM chemical, 4.8 µM LeA, 50 mM Tris-HCl pH 7.2, vs solvent control; for Relative Activity (%) LOX2: E. coli lysate in 50 mM TRIS pH 8.0 diluted 1:10, 50 mM HEPES pH 8.0 + 1 mM metal salt, LeA, 234 nm; for LOX2 activity in presence of Cd2+: 9 µM LeA, 20 mM HEPES pH 8.0, control 0.8 ± 0.2
T2 sequence (P38418 71-896): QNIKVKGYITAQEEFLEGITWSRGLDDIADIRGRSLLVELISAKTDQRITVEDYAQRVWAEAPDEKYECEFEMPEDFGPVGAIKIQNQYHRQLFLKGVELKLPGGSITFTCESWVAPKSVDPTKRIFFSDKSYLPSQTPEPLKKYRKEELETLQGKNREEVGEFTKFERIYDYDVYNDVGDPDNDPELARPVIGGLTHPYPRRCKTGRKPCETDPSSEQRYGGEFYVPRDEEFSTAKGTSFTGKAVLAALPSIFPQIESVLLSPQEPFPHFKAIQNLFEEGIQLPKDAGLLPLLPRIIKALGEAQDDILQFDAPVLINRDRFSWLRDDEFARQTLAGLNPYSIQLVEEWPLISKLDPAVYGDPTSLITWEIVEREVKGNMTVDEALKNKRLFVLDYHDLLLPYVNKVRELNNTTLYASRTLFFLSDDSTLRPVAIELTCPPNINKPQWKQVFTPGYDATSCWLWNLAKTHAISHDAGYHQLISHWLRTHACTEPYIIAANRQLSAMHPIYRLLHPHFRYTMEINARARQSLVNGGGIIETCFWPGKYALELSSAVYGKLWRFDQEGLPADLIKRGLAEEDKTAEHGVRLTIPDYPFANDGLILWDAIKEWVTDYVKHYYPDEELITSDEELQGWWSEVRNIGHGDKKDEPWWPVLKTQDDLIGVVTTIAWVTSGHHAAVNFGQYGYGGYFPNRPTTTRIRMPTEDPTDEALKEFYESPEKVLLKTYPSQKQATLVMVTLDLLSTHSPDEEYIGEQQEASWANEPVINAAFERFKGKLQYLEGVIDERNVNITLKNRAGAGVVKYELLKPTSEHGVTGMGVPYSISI

LOX3 = biological target: T3, LOX3 (Arabidopsis thaliana, UniProt Q9LNR3); assay: LOX3 activity, spectrophotometric (conjugated diene formation at 234 nm); settings: for Mode of inhibition: Michaelis–Menten, Lineweaver–Burk and Dixon plots; for Photometry Relative activity (%) LOX3: enzyme 0.225 µg/µL incubated 10 min 30 °C with 280 µM chemical, 4.8 µM LeA, 50 mM Tris-HCl pH 7.2, vs solvent control; for Relative Activity (%) LOX3: E. coli lysate in 50 mM TRIS pH 8.0 diluted 1:10, 50 mM HEPES pH 8.0 + 1 mM metal salt, LeA, 234 nm
T3 sequence (Q9LNR3 71-919): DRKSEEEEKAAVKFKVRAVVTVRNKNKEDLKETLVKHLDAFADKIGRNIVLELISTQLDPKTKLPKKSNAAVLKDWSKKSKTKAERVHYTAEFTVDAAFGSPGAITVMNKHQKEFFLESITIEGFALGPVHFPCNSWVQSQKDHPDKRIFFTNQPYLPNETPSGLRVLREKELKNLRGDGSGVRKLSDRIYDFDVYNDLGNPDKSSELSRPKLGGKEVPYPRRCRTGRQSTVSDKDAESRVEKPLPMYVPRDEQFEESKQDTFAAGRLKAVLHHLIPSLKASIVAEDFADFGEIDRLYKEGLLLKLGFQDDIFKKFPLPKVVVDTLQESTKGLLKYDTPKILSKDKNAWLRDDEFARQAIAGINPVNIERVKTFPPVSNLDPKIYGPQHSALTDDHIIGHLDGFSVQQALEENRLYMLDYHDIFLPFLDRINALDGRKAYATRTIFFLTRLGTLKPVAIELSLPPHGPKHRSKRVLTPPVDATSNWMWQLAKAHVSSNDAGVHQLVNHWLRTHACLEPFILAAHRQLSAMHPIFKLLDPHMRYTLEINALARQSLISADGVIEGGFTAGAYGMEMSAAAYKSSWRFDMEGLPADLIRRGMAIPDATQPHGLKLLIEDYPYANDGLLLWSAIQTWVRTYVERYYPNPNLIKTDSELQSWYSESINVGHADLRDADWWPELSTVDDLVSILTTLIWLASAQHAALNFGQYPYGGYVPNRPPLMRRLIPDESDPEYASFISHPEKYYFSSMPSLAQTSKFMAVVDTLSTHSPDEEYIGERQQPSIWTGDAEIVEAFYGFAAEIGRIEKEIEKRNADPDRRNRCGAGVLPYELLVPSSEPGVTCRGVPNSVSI

LOX6 [2] = biological target: T1, LOX6; assay: LOX6 activity, spectrophotometric (conjugated diene formation at 234 nm); settings: for Photometry Relative activity (%) LOX6: enzyme 0.225 µg/µL incubated 10 min 30 °C with 280 µM chemical, 4.8 µM LeA, 50 mM Tris-HCl pH 7.2, vs solvent control; for Relative Activity (%) LOX6: E. coli lysate in 50 mM TRIS pH 8.0 diluted 1:10, 50 mM HEPES pH 8.0 + 1 mM metal salt, LeA, 234 nm

| SMILES | activity at 280 µM (LOX6 [1]) [%] | Photometry Relative activity (%) LOX2 (LOX2) [%] | Photometry Relative activity (%) LOX6 (LOX6 [2]) [%] | Relative Activity (%) LOX6 (LOX6 [1]) | Relative Activity (%) LOX2 (LOX2) [%] | Relative Activity (%) LOX3 (LOX3) [%] | Relative Activity (%) LOX6 (LOX6 [2]) [%] | further results |
| --- | --- | --- | --- | --- | --- | --- | --- | --- |
| CCC=CCC1C(=O)C=CC1CCCCCCCC(=O)O (stereo not drawn) [12-OPDA, cis-(+)-12-oxophytodienoic acid] | 50 ± 10 | 49 ± 10 | 59 ± 10 | – | – | – | – | IC50 (LOX2): 280 to 338 µM; Mode of inhibition (LOX2): non-competitive; IC50 (LOX3): 130 ± 31 µM; Ki (LOX3): 13 µM; Mode of inhibition (LOX3): non-competitive or mixed; Photometry Relative activity (%) LOX3 (LOX3): 35 ± 5%; IC50 (LOX6 [2]): 280 to 338 µM; Mode of inhibition (LOX6 [2]; 226 µM): non-competitive |
| [Ca+2].[Cl-].[Cl-] [CaCl2] | – | – | – | 121 ± 15% | 550±40 | 104±2 | 107±11 | Increase of LOX6-catalyzed oxygen consumption (LOX6 [1]): 21% |
| O=S(=O)([O-])[O-].[Cd+2] [CdSO4] | – | – | – | no activity | 950±240 | 63±3 | 40±10 | LOX2 activity in presence of Cd2+ (LOX2; 40 µM Cd2+, listed as Cd2+): 2.3 ± 0.3 nmol/s/mg; LOX2 activity in presence of Cd2+ (LOX2; 40 µM Cd2+, listed as Cd^2+): 2.3 ± 0.3 nmol/s/mg; LOX2 activity in presence of Cd2+ (LOX2; 150 µM Cd2+, listed as Cd2+): 5.2 ± 0.9 nmol/s/mg; LOX2 activity in presence of Cd2+ (LOX2; 150 µM Cd2+, listed as Cd^2+): 5.2 ± 0.9 nmol/s/mg; LOX2 activity in presence of Cd2+ (LOX2; 1180 µM Cd2+, listed as Cd2+): 5.7 ± 0.7 nmol/s/mg; LOX2 activity in presence of Cd2+ (LOX2; 1180 µM Cd2+, listed as Cd^2+): 5.7 ± 0.7 nmol/s/mg |
| CC/C=C\CC1C(=O)CCC1CC(=O)OC (stereo not drawn) [MJ, methyl jasmonate] | 94 ± 6 | 62 ± 10 | 86 ± 6 | – | – | – | – | Mode of inhibition (LOX2): competitive; Ki (LOX3): 295 µM; Mode of inhibition (LOX3): non-competitive |
| [Cl-].[Cl-].[Mg+2] [MgCl2] | – | – | – | 142 ± 15% | 188±28 | 108±4 | 123±10 | Increase of LOX6-catalyzed oxygen consumption (LOX6 [1]): 42% |
| O=C(O)c1ccccc1O [SA, salicylic acid] | 103 ± 5 | – | – | – | – | – | – | – |
| O=C(O)/C=C/CCCCCCCCC(=O)O [TA, traumatic acid] | 101 ± 12 | 105 ± 5 | 100 ± 9 | – | – | – | – | Photometry Relative activity (%) LOX3 (LOX3): 103 ± 4% |
